According to paper PMC6150311, “Proline-Based Carbamates as Cholinesterase Inhibitors” (Molecules : A Journal of Synthetic Chemistry and Natural …, 2017):

Tests used:
[1] = target: T1, AChE from electric eel (Electrophorus electricus) (Electrophorus electricus, UniProt O42275); experiment: In vitro AChE inhibition, modified Ellman's method; format: biochemical
T1 construct: AChE (from electric eel) and BChE (from equine serum); purchased Sigma, St. Louis, MO, USA; host or cells: electric eel (animal source)
Method: (§1) The ability of all prepared compounds to inhibit AChE from electric eel (Electrophorus electricus) and BChE from equine serum (both purchased from Sigma, St. Louis, MO, USA) was determined in vitro using a modified Ellman’s method. […] The Ellman’s method is widely used for measuring cholinesterase activity and the effectivity of ChEIs. It is a simple, rapid and direct method to determine SH and –S–S– groups content in proteins. Cholinesterase activity is measured indirectly by quantifying the concentration of 5-thio-2-nitrobenzoic acid (TNB) ion formed in the reaction between disulfide reagent 5,5′-dithiobis-2-nitrobenzoic acid (DTNB) and thiocholine, a product of substrate (i.e., acetylthiocholine, ATCh) hydrolysis catalyzed by cholinesterase.
(§2) All tested compounds were dissolved in DMSO (concentration 0.01 M) and diluted in demineralized water (concentrations 0.001 M and 0.0001 M). The ability of tested compounds to inhibit AChE (from electric eel) and BChE (from equine serum) was determined using the modified Ellman’s method at 25 °C in the presence of phosphate buffered saline (PBS, 0.1 M, pH 7.4) in a glass cuvette with 1 cm optical path. The enzyme activity in total reaction mixture (2 mL) was 0.2 U/mL, the concentration of substrate ATCh 40 μM and the concentration of DTNB 0.1 mM for all reactions. The IC50 value was obtained from the dependence of v0/vi on the concentration of the tested compound (inhibitor), where v0 is the reaction rate of uninhibited reaction and vi is the reaction rate of inhibited reaction (for the given concentration of the inhibitor). First, v0 was determined. Into the cuvette PBS (0.1 M, pH 7.4), DTNB and ATCh were placed. The enzymatic reaction was started by adding the enzyme. […] The measurement was performed in triplicate at least, and average v0 was determined. Then, vi (for the given concentration of the inhibitor) was determined. Into the cuvette DTNB, ATCh, a chosen volume of the suitably diluted inhibitor (to achieve the required concentration of the inhibitor in the total reaction mixture) and a certain volume of PBS (to achieve the total volume of the reaction mixture 2 mL after adding the enzyme) were placed. The enzymatic reaction was started by adding the enzyme. […] For determination of IC50 values, twelve different concentrations of inhibitor were used and each measurement was performed in triplicate at least.

[2] = test system: human monocytic leukemia THP-1 cells; experiment: In vitro cytotoxicity assay (WST-1); format: cell-based; details: 24 h, highest tested concentration 30 μM, read-out: tox. IC50
Method: The cytotoxicity was evaluated as the IC50 value (compound concentration causing 50% inhibition of cell population proliferation) (see Table 1). […] Based on these observations, it can be concluded that the discussed compounds can be considered as non-toxic agents for subsequent design of novel drugs.
Human monocytic leukemia THP-1 cells were used for in vitro toxicity assay. Cells were obtained from the European Collection of Cell Cultures (ECACC, Salisbury, UK) and routinely cultured in RPMI 1640 (Lonza, Verviers, Belgium) medium supplemented with 10% fetal bovine serum (FBS, Sigma), 2% L-glutamine, 1% penicillin and streptomycin (Lonza, Verviers, Belgium) at 37 °C with 5% CO2. Cells were passaged at approximately one week intervals. The cytotoxicity of the compounds was determined using a WST-1 assay kit (Roche Diagnostics, Mannheim, Germany) according to the manufacturer’s instructions. The tested compounds were dissolved in DMSO and added in five increasing concentrations (0.37, 1.1, 3.3, 10, and 30 μM) to the cell suspension in the culture RPMI 1640 medium. The maximum concentration of DMSO (Sigma) in the assays never exceeded 0.1%. Subsequently, the cells were incubated for 24 h at 37 °C with 5% CO2. For WST-1 assays, cells were seeded into 96-well plates (5 × 10^4 cells/well in 100 μL culture medium) in triplicate in serum-free RPMI 1640 medium, and measurements were taken 24 h after the treatment with the compounds. The median inhibition concentration values, IC50, were deduced through the production of a dose-response curve. All data were evaluated using the GraphPad Prism 5.00 software (GraphPad Software, San Diego, CA, USA).

BChE from equine serum = target: T2, BChE from equine serum (Equus caballus, UniProt P81908); experiment: In vitro BChE inhibition, modified Ellman's method; format: biochemical; details: for SI (index selectivity) = IC50 (AChE)/IC50 (BChE): ratio AChE/BChE, higher = more selective to BChE
T2 construct: BChE (from equine serum); purchased Sigma, St. Louis, MO, USA; host or cells: equine serum
Method: as §1, §2

T2 sequence (P81908 whole entry): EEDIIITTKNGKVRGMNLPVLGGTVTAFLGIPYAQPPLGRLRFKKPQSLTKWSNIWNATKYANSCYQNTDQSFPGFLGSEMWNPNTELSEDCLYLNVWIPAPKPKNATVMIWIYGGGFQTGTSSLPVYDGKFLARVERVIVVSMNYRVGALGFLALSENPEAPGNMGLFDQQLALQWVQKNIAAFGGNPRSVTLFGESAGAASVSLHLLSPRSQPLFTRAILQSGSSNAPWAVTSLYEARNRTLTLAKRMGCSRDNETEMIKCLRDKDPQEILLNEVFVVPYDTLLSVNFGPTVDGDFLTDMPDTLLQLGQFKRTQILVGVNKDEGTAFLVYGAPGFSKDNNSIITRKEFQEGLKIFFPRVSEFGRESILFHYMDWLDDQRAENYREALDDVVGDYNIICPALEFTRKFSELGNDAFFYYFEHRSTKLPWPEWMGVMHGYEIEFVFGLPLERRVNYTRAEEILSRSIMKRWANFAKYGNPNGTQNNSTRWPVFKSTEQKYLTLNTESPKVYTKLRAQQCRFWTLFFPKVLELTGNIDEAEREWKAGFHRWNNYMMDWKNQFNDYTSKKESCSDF
T1 sequence (O42275 24-633): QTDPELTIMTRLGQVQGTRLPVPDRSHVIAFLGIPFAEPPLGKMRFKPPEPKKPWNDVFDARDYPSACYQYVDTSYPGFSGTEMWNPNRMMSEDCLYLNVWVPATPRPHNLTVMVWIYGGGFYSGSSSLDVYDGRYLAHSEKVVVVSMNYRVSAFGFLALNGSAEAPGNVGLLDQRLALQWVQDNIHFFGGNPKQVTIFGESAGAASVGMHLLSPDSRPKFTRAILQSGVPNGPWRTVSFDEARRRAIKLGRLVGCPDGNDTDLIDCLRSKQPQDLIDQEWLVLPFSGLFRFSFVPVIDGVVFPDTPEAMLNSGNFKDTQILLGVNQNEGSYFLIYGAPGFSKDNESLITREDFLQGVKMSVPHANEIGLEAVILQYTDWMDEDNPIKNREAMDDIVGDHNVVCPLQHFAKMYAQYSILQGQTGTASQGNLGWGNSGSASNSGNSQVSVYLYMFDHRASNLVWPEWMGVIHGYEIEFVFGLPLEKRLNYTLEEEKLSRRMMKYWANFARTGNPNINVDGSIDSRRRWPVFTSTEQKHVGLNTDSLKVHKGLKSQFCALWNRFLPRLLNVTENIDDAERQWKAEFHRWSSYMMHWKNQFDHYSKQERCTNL

O=C(Nc1ccccc1O)[C@@H]1CCCN1C(=O)OCc1ccccc1 [Compound 9a, Benzyl (2S)-2-[(2-hydroxyphenyl)carbamoyl]pyrrolidine-1-carboxylate]
IC50 [1]: 153 ± 9.97 µM
IC50 [2]: > 30 µM
IC50 (BChE from equine serum): 42 ± 1.26 µM
selectivity to BChE (in words) (BChE from equine serum; BChE vs AChE): greater selectivity to BChE
SI (index selectivity) = IC50 (AChE)/IC50 (BChE) (BChE from equine serum): 3.65

O=C(Nc1cccc(O)c1)[C@@H]1CCCN1C(=O)OCc1ccccc1 [Compound 9b, Benzyl (2S)-2-[(3-hydroxyphenyl)carbamoyl]pyrrolidine-1-carboxylate]
IC50 [1]: 122 ± 1.38 µM
IC50 [2]: > 30 µM
IC50 (BChE from equine serum): 86.22 ± 0.4 µM
SI (index selectivity) = IC50 (AChE)/IC50 (BChE) (BChE from equine serum): 1.41

O=C(Nc1ccc(O)cc1)[C@@H]1CCCN1C(=O)OCc1ccccc1 [Compound 9c, Benzyl (2S)-2-[(4-hydroxyphenyl)carbamoyl]pyrrolidine-1-carboxylate]
IC50 [1]: 91.08 ± 0.27 µM
IC50 [2]: > 30 µM
IC50 (BChE from equine serum): 133 ± 0.39 µM
SI (index selectivity) = IC50 (AChE)/IC50 (BChE) (BChE from equine serum): 0.68
